Among the data in PubChem BioAssay AID1259407 (Chemical Carcinogenesis Research Information System (CCRIS), 2018) are mutagenic call values, retold here.

The series relates to CCRIS mutagenicity, Ames/micronucleus/aberration tests. Put plainly: CCRIS mutagenicity studies. The text has this:
The CCRIS database contains chemical records with carcinogenicity, mutagenicity, tumor promotion, and tumor inhibition test results. It was developed by the National Cancer Institute (NCI). Data are derived from studies cited in primary journals, current awareness tools, NCI reports, and other sources. Test results have been reviewed by experts in carcinogenesis and mutagenesis.
CCRIS provides historical information from the years 1985 - 2011. It is no longer updated.
This is an archive assay for CCRIS mutagenicity studies.

The mark [1] stands for this setting: Test System: AMES SALMONELLA TYPHIMURIUM, Strain/Indicator: TA98, Metabolic Activation: NONE, Method: PREINCUBATION
Where [2] appears, read: Test System: AMES SALMONELLA TYPHIMURIUM, Strain/Indicator: TA100, Metabolic Activation: NONE, Method: PREINCUBATION
The mark [3] stands for this setting: Test System: AMES SALMONELLA TYPHIMURIUM, Strain/Indicator: TA98, Metabolic Activation: NONE, Method: STANDARD PLATE.
[4] abbreviates: Test System: AMES SALMONELLA TYPHIMURIUM, Strain/Indicator: TA100, Metabolic Activation: NONE, Method: STANDARD PLATE.
Setting [5] is: Test System: AMES SALMONELLA TYPHIMURIUM, Strain/Indicator: TA97, Metabolic Activation: NONE, Method: PREINCUBATION
[6] abbreviates: Test System: AMES SALMONELLA TYPHIMURIUM, Strain/Indicator: TA97, Metabolic Activation: RAT, LIVER, S-9, AROCLOR 1254 (10%), Method: PREINCUBATION
Where [7] appears, read: Test System: AMES SALMONELLA TYPHIMURIUM, Strain/Indicator: TA98, Metabolic Activation: RAT, LIVER, S-9, AROCLOR 1254 (10%), Method: PREINCUBATION
[8] abbreviates: Test System: AMES SALMONELLA TYPHIMURIUM, Strain/Indicator: TA100, Metabolic Activation: RAT, LIVER, S-9, AROCLOR 1254 (10%), Method: PREINCUBATION

Activity calls are given as the source filed them. No rule for the calls is given here.

As for `O=C(Cl)c1c(Cl)cccc1Cl`, the mutagenic call reads like this: under setting [1], “active; positive”; (Test System: AMES SALMONELLA TYPHIMURIUM, Strain/Indicator: TA98, Metabolic Activation: RAT LIVER S-9, PCB, Method: PREINCUBATION) “active; positive”; under setting [2], “active; positive”; (Test System: AMES SALMONELLA TYPHIMURIUM, Strain/Indicator: TA100, Metabolic Activation: RAT LIVER S-9, PCB, Method: PREINCUBATION) “active; positive”; (Test System: AMES SALMONELLA TYPHIMURIUM, Strain/Indicator: TA104, Metabolic Activation: NONE, Method: PREINCUBATION) “inactive; negative”; (Test System: AMES SALMONELLA TYPHIMURIUM, Strain/Indicator: TA104, Metabolic Activation: RAT LIVER S-9, PCB, Method: PREINCUBATION) “active; positive”. Besides, the mutagenic call by setting is: (Test System: E.COLI, Strain/Indicator: WP2 UVRA, Metabolic Activation: NONE, Method: PREINCUBATION) “active; positive”; (Test System: E.COLI, Strain/Indicator: WP2 UVRA, Metabolic Activation: RAT LIVER S-9, PCB, Method: PREINCUBATION) “active; positive”.

In the case of `Cc1ccc2[nH]c3c(C)cc([N+](=O)[O-])c(C)c3c2c1`, the mutagenic call by setting is: under setting [3], “active; positive”; (Test System: AMES SALMONELLA TYPHIMURIUM, Strain/Indicator: TA98, Metabolic Activation: RAT LIVER S-9, AROCLOR 1254, Method: STANDARD PLATE) “active; positive”; under setting [4], “inactive; negative”; (Test System: AMES SALMONELLA TYPHIMURIUM, Strain/Indicator: TA100, Metabolic Activation: RAT LIVER S-9, AROCLOR 1254, Method: STANDARD PLATE) “inactive; negative”; (Test System: AMES SALMONELLA TYPHIMURIUM, Strain/Indicator: TA1537, Metabolic Activation: RAT LIVER S-9, AROCLOR 1254, Method: STANDARD PLATE) “active; positive”; (Test System: AMES SALMONELLA TYPHIMURIUM, Strain/Indicator: TA1977, Metabolic Activation: NONE, Method: STANDARD PLATE) “inactive; negative”. Besides, the mutagenic call (Test System: AMES SALMONELLA TYPHIMURIUM, Strain/Indicator: TA1977, Metabolic Activation: RAT LIVER S-9, AROCLOR 1254, Method: STANDARD PLATE) was “active; positive”.

For the compound `COc1ccc(/C=N/n2nnc3c([nH]c4ccccc43)c2=O)cc1`, the mutagenic call runs as follows: under setting [5], “active; positive”; under setting [6], “active; positive”; under setting [1], “active; positive”; under setting [7], “active; positive”; under setting [2], “active; positive”; under setting [8], “active; positive”. Further, the mutagenic call (Test System: AMES SALMONELLA TYPHIMURIUM, Strain/Indicator: TA102, Metabolic Activation: NONE, Method: PREINCUBATION) is “inactive; negative” and the mutagenic call (Test System: AMES SALMONELLA TYPHIMURIUM, Strain/Indicator: TA102, Metabolic Activation: RAT, LIVER, S-9, AROCLOR 1254 (10%), Method: PREINCUBATION) was “inactive; negative”.

On to `O=[N+]([O-])c1ccc(CCO)cc1`, for which the mutagenic call (Test System: AMES SALMONELLA TYPHIMURIUM, Strain/Indicator: TA97, Metabolic Activation: HAMSTER, LIVER, S-9, AROCLOR 1254 (10%), Method: PREINCUBATION) was “inactive; negative”; the mutagenic call under setting [5] is “inactive; negative”; the mutagenic call under setting [6] is “inactive; negative”; the mutagenic call (Test System: AMES SALMONELLA TYPHIMURIUM, Strain/Indicator: TA98, Metabolic Activation: HAMSTER, LIVER, S-9, AROCLOR 1254 (10%), Method: PREINCUBATION) is “active; positive”; the mutagenic call under setting [1] is “active; positive”; the mutagenic call under setting [7] was “active; positive”. Moreover, the mutagenic call (Test System: AMES SALMONELLA TYPHIMURIUM, Strain/Indicator: TA100, Metabolic Activation: HAMSTER, LIVER, S-9, AROCLOR 1254 (10%), Method: PREINCUBATION) was “active; positive”; the mutagenic call under setting [2] is “inactive; negative”; the mutagenic call under setting [8] was “active; positive”; the mutagenic call (Test System: AMES SALMONELLA TYPHIMURIUM, Strain/Indicator: TA1535, Metabolic Activation: HAMSTER, LIVER, S-9, AROCLOR 1254 (10%), Method: PREINCUBATION) was “active; positive”; the mutagenic call (Test System: AMES SALMONELLA TYPHIMURIUM, Strain/Indicator: TA1535, Metabolic Activation: NONE, Method: PREINCUBATION) was “inactive; negative”; the mutagenic call (Test System: AMES SALMONELLA TYPHIMURIUM, Strain/Indicator: TA1535, Metabolic Activation: RAT, LIVER, S-9, AROCLOR 1254 (10%), Method: PREINCUBATION) was “active; positive”.

Take `CCN(CC)c1ccc(N=Nc2ccc([N+](=O)[O-])cc2)cc1`: the mutagenic call was “inactive; negative” under setting [3]; “active; positive” (Test System: AMES SALMONELLA TYPHIMURIUM, Strain/Indicator: TA98, Metabolic Activation: RAT, LIVER, S-9, AROCLOR 1254, Method: STANDARD PLATE); “inactive; negative” under setting [4]; “inactive; negative” (Test System: AMES SALMONELLA TYPHIMURIUM, Strain/Indicator: TA100, Metabolic Activation: RAT, LIVER, S-9, AROCLOR 1254, Method: STANDARD PLATE); “inactive; negative” (Test System: AMES SALMONELLA TYPHIMURIUM, Strain/Indicator: TA1535, Metabolic Activation: NONE, Method: STANDARD PLATE); “inactive; negative” (Test System: AMES SALMONELLA TYPHIMURIUM, Strain/Indicator: TA1535, Metabolic Activation: RAT, LIVER, S-9, AROCLOR 1254, Method: STANDARD PLATE). For the same compound, the mutagenic call (Test System: AMES SALMONELLA TYPHIMURIUM, Strain/Indicator: TA1537, Metabolic Activation: NONE, Method: STANDARD PLATE) is “inactive; negative”; the mutagenic call (Test System: AMES SALMONELLA TYPHIMURIUM, Strain/Indicator: TA1537, Metabolic Activation: RAT, LIVER, S-9, AROCLOR 1254, Method: STANDARD PLATE) is “inactive; negative”; the mutagenic call (Test System: CHINESE HAMSTER V-79, Strain/Indicator: V-79 (HGPRT)/6-THIOGUANINE, Metabolic Activation: NONE) is “inactive; negative”; the mutagenic call (Test System: CHINESE HAMSTER V-79, Strain/Indicator: V-79 (HGPRT)/6-THIOGUANINE, Metabolic Activation: RAT, LIVER, S-9, KANECLOR 400) was “inactive; negative”; the mutagenic call (Test System: UDS RAT HEPATOCYTES, Strain/Indicator: THY INCORP, Metabolic Activation: NONE, Method: AUTORADIOGRAPHY) is “inactive; negative”.

As to `O=c1cccc2c1ccc1[nH]c3ccc4ccccc4c3cc12`, the mutagenic call is, setting by setting: (Test System: AMES SALMONELLA TYPHIMURIUM, Strain/Indicator: TA100, Metabolic Activation: GUINEA PIG, LIVER, S-9, 3-METHYLCHOLANTHRENE, Method: STANDARD PLATE) “inactive; negative”; (Test System: CHINESE HAMSTER V-79, Strain/Indicator: V-79/6-THIOGUANINE, Metabolic Activation: GUINEA PIG, LIVER, S-9, 3-METHYLCHOLANTHRENE) “inactive; negative”.
